Patent US8952024B2, “Herbicidal pyrimidone derivatives” (E I du Pont de Nemours and Company, priority 2009, dated 2015)

How the values were obtained:
Assay in all cases: Test B pre-/postemergence plant response
Type in all cases: in vivo
[1] = tested on: downy bromegrass (Bromus tectorum)
Outline: (§1)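 Visually scored on a 0 to 100 scale after 13 to 15 days in greenhouse versus controls. Treatments were preemergence on seeded loam/sand soil and postemergence on 1- to 4-leaf plants.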

[2] = tested on: woolly cupgrass (Eriochloa villosa)
Outline: as §1

soybean (Glycine max) = tested on: soybean (Glycine max)
Outline: as §1

[3] = tested on: ragweed (common ragweed, Ambrosia elatior)
Outline: as §1

[4] = tested on: blackgrass (Alopecurus myosuroides)
Outline: as §1

[5] = tested on: giant foxtail (Setaria faberii)
Outline: as §1

[6] = tested on: pigweed (Amaranthus retroflexus)
Outline: as §1

[7] = tested on: johnsongrass (Sorghum halepense)
Outline: as §1

[8] = tested on: velvetleaf (Abutilon theophrasti)
Outline: as §1

corn (Zea mays) = tested on: corn (Zea mays)
Outline: as §1

[9] = tested on: Surinam grass (Brachiaria decumbens)
Outline: as §1

[10] = tested on: Italian ryegrass (Lolium multiflorum)
Outline: as §1

kochia (Kochia scoparia) = tested on: kochia (Kochia scoparia)
Outline: as §1

[11] = 31 g ai/ha, postemergence, scale 0 to 100, 0 is no effect, 100 is complete control
[12] = 62 g ai/ha, postemergence, 0 is no effect, 100 is complete control, 13 to 15 days
[13] = Postemergence, 125 g ai/ha, visual rating after 13 to 15 days, scale 0 (no effect) to 100 (complete control)
[14] = Postemergence, 250 g ai/ha, scale 0 to 100 (0 no effect, 100 complete control)
[15] = Preemergence, 31 g ai/ha, scale 0 to 100 (0 no effect, 100 complete control)
[16] = Preemergence, 62 g ai/ha, scale 0 to 100 (0 no effect, 100 complete control)
[17] = Preemergence, 125 g ai/ha, scale 0 to 100, 0 no effect, 100 complete control
[18] = Preemergence, 250 g ai/ha, 0 to 100 scale

## CCCc1ncc(C(=O)C2=C(O)CCCC2=O)c(=O)n1CC1CCCO1 (stereo not drawn) [Compound 74]
[1]; [11]
  Plant response rating, Bromegrass, Downy: 0
[1]; [12]
  Bromegrass, Downy plant response rating (0 to 100 scale): 5
[1]; [13]
  Plant response rating, Bromegrass, Downy: 5
[1]; [14]
  Plant response rating, Bromegrass, Downy: 35
[1]; [15]
  Plant response rating, Bromegrass, Downy: 0
[1]; [16]
  Plant response rating, Bromegrass, Downy: 0
[1]; [17]
  Plant response rating, Bromegrass, Downy: 0
[1]; [18]
  Bromegrass, Downy plant response rating: 0
[2]; [11]
  Plant response rating, Cupgrass, Woolly: 10
[2]; [12]
  Cupgrass, Woolly plant response rating (0 to 100 scale): 10
[2]; [13]
  Plant response rating, Cupgrass, Woolly: 55
[2]; [14]
  Plant response rating, Cupgrass, Woolly: 75
[2]; [15]
  Plant response rating, Cupgrass, Woolly: 0
[2]; [16]
  Plant response rating, Cupgrass, Woolly: 0
[2]; [17]
  Plant response rating, Cupgrass, Woolly: 0
[2]; [18]
  Cupgrass, Woolly plant response rating: 5
Soybean (Glycine max); [11]
  Plant response rating, Soybean: 75
Soybean (Glycine max); [12]
  Soybean plant response rating (0 to 100 scale): 75
Soybean (Glycine max); [13]
  Plant response rating, Soybean: 95
Soybean (Glycine max); [14]
  Plant response rating, Soybean: 95
[3]; [11]
  Plant response rating, Ragweed: 75
[3]; [12]
  Ragweed plant response rating (0 to 100 scale): 75
[3]; [13]
  Plant response rating, Ragweed: 85
[3]; [14]
  Plant response rating, Ragweed: 90
[3]; [15]
  Plant response rating, Ragweed: 10
[3]; [16]
  Plant response rating, Ragweed: 98
[3]; [17]
  Plant response rating, Ragweed: 98
[3]; [18]
  Ragweed plant response rating: 100
[4]; [11]
  Plant response rating, Blackgrass: 0
[4]; [12]
  Blackgrass plant response rating (0 to 100 scale): 0
[4]; [13]
  Plant response rating, Blackgrass: 25
[4]; [14]
  Plant response rating, Blackgrass: 45
[4]; [15]
  Plant response rating, Blackgrass: 0
[4]; [16]
  Plant response rating, Blackgrass: 0
[4]; [17]
  Plant response rating, Blackgrass: 0
[4]; [18]
  Blackgrass plant response rating: 10
[5]; [11]
  Plant response rating, Foxtail, Giant: 25
[5]; [12]
  Foxtail, Giant plant response rating (0 to 100 scale): 55
[5]; [13]
  Plant response rating, Foxtail, Giant: 70
[5]; [14]
  Plant response rating, Foxtail, Giant: 85
[5]; [15]
  Plant response rating, Foxtail, Giant: 0
[5]; [16]
  Plant response rating, Foxtail, Giant: 0
[5]; [17]
  Plant response rating, Foxtail, Giant: 5
[5]; [18]
  Foxtail, Giant plant response rating: 45
[6]; [11]
  Plant response rating, Pigweed: 90
[6]; [12]
  Pigweed plant response rating (0 to 100 scale): 98
[6]; [13]
  Plant response rating, Pigweed: 100
[6]; [14]
  Plant response rating, Pigweed: 100
[6]; [15]
  Plant response rating, Pigweed: 98
[6]; [16]
  Plant response rating, Pigweed: 98
[6]; [17]
  Plant response rating, Pigweed: 100
[6]; [18]
  Pigweed plant response rating: 100
[7]; [11]
  Plant response rating, Johnsongrass: 0
[7]; [12]
  Johnsongrass plant response rating (0 to 100 scale): 0
[7]; [13]
  Plant response rating, Johnsongrass: 10
[7]; [14]
  Plant response rating, Johnsongrass: 85
[7]; [15]
  Plant response rating, Johnsongrass: 0
[7]; [16]
  Plant response rating, Johnsongrass: 0
[7]; [17]
  Plant response rating, Johnsongrass: 0
[7]; [18]
  Johnsongrass plant response rating: 0
[8]; [11]
  Plant response rating, Velvetleaf: 98
[8]; [12]
  Velvetleaf plant response rating (0 to 100 scale): 100
[8]; [13]
  Plant response rating, Velvetleaf: 100
[8]; [14]
  Plant response rating, Velvetleaf: 100
[8]; [15]
  Plant response rating, Velvetleaf: 98
[8]; [16]
  Plant response rating, Velvetleaf: 100
[8]; [17]
  Plant response rating, Velvetleaf: 100
[8]; [18]
  Velvetleaf plant response rating: 100
Corn (Zea mays); [11]
  Plant response rating, Corn: 0
Corn (Zea mays); [12]
  Corn plant response rating (0 to 100 scale): 0
Corn (Zea mays); [13]
  Plant response rating, Corn: 15
Corn (Zea mays); [14]
  Plant response rating, Corn: 60
Corn (Zea mays); [15]
  Plant response rating, Corn: 0
Corn (Zea mays); [16]
  Plant response rating, Corn: 0
Corn (Zea mays); [17]
  Plant response rating, Corn: 0
Corn (Zea mays); [18]
  Corn plant response rating: 0
[9]; [11]
  Plant response rating, Surinam Grass: 20
[9]; [12]
  Surinam Grass plant response rating (0 to 100 scale): 45
[9]; [13]
  Plant response rating, Surinam Grass: 65
[9]; [14]
  Plant response rating, Surinam Grass: 75
[9]; [15]
  Plant response rating, Surinam Grass: 0
[9]; [16]
  Plant response rating, Surinam Grass: 80
[9]; [17]
  Plant response rating, Surinam Grass: 85
[9]; [18]
  Surinam Grass plant response rating: 95
[10]; [11]
  Plant response rating, Ryegrass, Italian: 5
[10]; [12]
  Ryegrass, Italian plant response rating (0 to 100 scale): 20
[10]; [13]
  Plant response rating, Ryegrass, Italian: 20
[10]; [14]
  Plant response rating, Ryegrass, Italian: 35
[10]; [15]
  Plant response rating, Ryegrass, Italian: 0
[10]; [16]
  Plant response rating, Ryegrass, Italian: 0
[10]; [17]
  Plant response rating, Ryegrass, Italian: 0
[10]; [18]
  Ryegrass, Italian plant response rating: 0
Kochia (Kochia scoparia); [11]
  Plant response rating, Kochia: 75
Kochia (Kochia scoparia); [12]
  Kochia plant response rating (0 to 100 scale): 75
Kochia (Kochia scoparia); [13]
  Plant response rating, Kochia: 95
Kochia (Kochia scoparia); [14]
  Plant response rating, Kochia: 98
Kochia (Kochia scoparia); [15]
  Plant response rating, Kochia: 80
Kochia (Kochia scoparia); [17]
  Plant response rating, Kochia: 85
Kochia (Kochia scoparia); [18]
  Kochia plant response rating: 85
